Experimental data from patent publication US8741897B2, “Glucocorticoid mimetics, methods of making them, pharmaceutical compositions and uses thereof” (Boehringer Ingelheim Pharmaceuticals Inc., priority 2003, dated 2014).

Test system: glucocorticoid receptor function
Assay: one or more of the above assays (GR binding and glucocorticoid receptor cell assays: aromatase, IL-6, TAT, MMTV-Luc, IL-8, ICAM-Luc)
Format: cell-based
Conditions: assay not specified per compound

COc1ccc(-c2ccccc2C#N)cc1C(C)(C)CC(O)(Cc1cc2c(C)cncc2[nH]1)C(F)(F)F (centres unmarked) [4′-Methoxy-3′-[4,4,4-trifluoro-3-hydroxy-1,1-dimethyl-3-(4-methyl-1H-pyrrolo[2,3-c]pyridin-2-ylmethyl)butyl]biphenyl-2-carbonitrile]
activity as agonists of the glucocorticoid receptor function in one or more of the above assays: potent agonists

COc1ccc(F)cc1C(C)(C)CC(O)(Cc1cc2nc(-c3ccccc3)ncc2[nH]1)C(F)(F)F (centres unmarked) [1,1,1-Trifluoro-4-(5-fluoro-2-methoxyphenyl)-4-methyl-2-(2-phenyl-5H-pyrrolo[3,2-d]pyrimidin-6-ylmethyl)pentan-2-ol]
activity as agonists of the glucocorticoid receptor function in one or more of the above assays: potent agonists

Cc1ccc(F)cc1C(C)(C)CC(O)(Cc1cc2nc(CN3CCOCC3)ccc2[nH]1)C(F)(F)F (centres unmarked) [1,1,1-Trifluoro-4-(5-fluoro-2-methylphenyl)-4-methyl-2-(5-morpholin-4-ylmethyl-1H-pyrrolo[3,2-b]pyridin-2-ylmethyl)pentan-2-ol]
activity as agonists of the glucocorticoid receptor function in one or more of the above assays: potent agonists

CC(C)(CC(O)(Cc1cc2ccncc2[nH]1)C(F)(F)F)c1cc(-c2ccsc2)ccc1O (centres unmarked) [4-Thiophen-3-yl-2-[4,4,4-trifluoro-3-hydroxy-1,1-dimethyl-3-(1H-pyrrolo[2,3-c]pyridin-2-ylmethyl)butyl]phenol]
activity as agonists of the glucocorticoid receptor function in one or more of the above assays: potent agonists

COc1ccc(F)cc1C(C)(C)CC(O)(Cc1cc2nc(N3CCCC3)ncc2[nH]1)C(F)(F)F (centres unmarked) [1,1,1-Trifluoro-4-(5-fluoro-2-methoxyphenyl)-4-methyl-2-(2-pyrrolidin-1-yl-5H-pyrrolo[3,2-d]pyrimidin-6-ylmethyl)pentan-2-ol]
activity as agonists of the glucocorticoid receptor function in one or more of the above assays: potent agonists

CCOc1cc2cc(CC(O)(CC(C)(C)c3cc(F)ccc3C)C(F)(F)F)[nH]c2cn1 (centres unmarked) [2-(5-Ethoxy-1H-pyrrolo[2,3-c]pyridin-2-ylmethyl)-1,1,1-trifluoro-4-(5-fluoro-2-methylphenyl)-4-methylpentan-2-ol]
activity as agonists of the glucocorticoid receptor function in one or more of the above assays: potent agonists

CC(C)(CC(O)(Cc1cc2nc(Cl)ncc2[nH]1)C(F)(F)F)c1cc(Cl)cc2c1OCC2 (centres unmarked) [4-(5-Chloro-2,3-dihydrobenzofuran-7-yl)-2-(2-chloro-5H-pyrrolo[3,2-d]pyrimidin-6-ylmethyl)-1,1,1-trifluoro-4-methylpentan-2-ol]
activity as agonists of the glucocorticoid receptor function in one or more of the above assays: potent agonists

CN(C)c1ccc(-c2ccc3[nH]c(CC(O)(CC(C)(C)c4cc(F)cc5c4OCC5)C(F)(F)F)cc3c2)cc1 (centres unmarked) [2-[5-(4-Dimethylaminophenyl)-1H-indol-2-ylmethyl]-1,1,1-trifluoro-4-(5-fluoro-2,3-dihydrobenzofuran-7-yl)-4-methylpentan-2-ol]
activity as agonists of the glucocorticoid receptor function in one or more of the above assays: potent agonists

CCN(C)c1cc2cc(CC(O)(CC(C)(C)c3cc(-c4ccccc4C#N)ccc3O)C(F)(F)F)[nH]c2cn1 (centres unmarked) [3′-{3-[5-(Ethylmethylamino)-1H-pyrrolo[2,3-c]pyridin-2-ylmethyl]-4,4,4-trifluoro-3-hydroxy-1,1-dimethylbutyl}-4′-hydroxybiphenyl-2-carbonitrile]
activity as agonists of the glucocorticoid receptor function in one or more of the above assays: potent agonists

COc1ccc(-c2ccccc2)cc1C(C)(C)CC(O)(Cc1cc2cc(N3CCCCC3)ncc2[nH]1)C(F)(F)F (centres unmarked) [1,1,1-Trifluoro-4-(4-methoxybiphenyl-3-yl)-4-methyl-2-(5-piperidin-1-yl-1H-pyrrolo[2,3-c]pyridin-2-ylmethyl)pentan-2-ol]
activity as agonists of the glucocorticoid receptor function in one or more of the above assays: potent agonists

CC(C)(CC(O)(Cc1cc2cc(-c3cccc(C#N)c3)ccc2[nH]1)C(F)(F)F)c1cc(F)cc2c1OCC2 (centres unmarked) [3-{2-[4-(5-Fluoro-2,3-dihydrobenzofuran-7-yl)-2-hydroxy-4-methyl-2-trifluoromethylpentyl]-1H-indol-5-yl}benzonitrile]
activity as agonists of the glucocorticoid receptor function in one or more of the above assays: potent agonists
